The values that follow come from patent publication US20230031406A1, “COMPOUNDS AND COMPOSITIONS FOR TREATING CONDITIONS ASSOCIATED WITH NLRP ACTIVITY” (Novartis AG, priority 2018, published 2023).

Each structure is given as a SMILES string. Where two headings read alike, the source gives them in different places.

The subject of this assay is PMA-differentiated THP-1 cells. Put plainly: IL-1β production in PMA-differentiated THP-1 cells stimulated with gramicidin (hTHP-1 assay containing 2% fetal bovine serum; Procedures 1 and 2). The assay is classed as cell-based, human. To be noted: 2% fetal bovine serum. The gist of the method:
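Human monocytic THP-1 cells, matured overnight with PMA at 20 ng/ml, are seeded in low-serum (2% FBS) RPMI. Test compounds, at final concentrations from 100 down to 0.0017 μM, precede gramicidin (5 μM, 2 h) by one hour. Released IL-1β is then determined by HTRF.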

Setting [1] is: Table B1, class symbols, read-out: Average IC50 of compounds in hTHP-1 assay: hTHP-1 IC50.
[2] abbreviates: Table B3, hTHP-1 assay, class symbols, read-out: IC50.
The mark [3] stands for this setting: Homo sapiens, THP-1, Table B1, class symbols, read-out: Average IC50 of compounds in hTHP-1 assay: hTHP-1 IC50.

As a reminder, the IC50 is the concentration needed to halve the response being measured. Turning to `Cc1nc2c(c(NC(=O)N=S(N)(=O)c3cc(C(C)(C)O)cs3)c1C(F)(F)F)CCC2` (stereo not drawn) [Example 566, 4-(2-Hydroxypropan-2-yl)-N′-((2-methyl-3-(trifluoromethyl)-6,7-dihydro-5H-cyclopenta[b]pyridin-4-yl)carbamoyl)thiophene-2-sulfonimidamide], the IC50 (Homo sapiens, THP-1, Table B3, hTHP-1 assay, class symbols, read-out: IC50) lay within 0.2 to 1 µM.
Turning to `Cc1c(C2CC2)nc2c(c1NC(=O)N=S(N)(=O)c1cc(C(C)(C)O)cs1)CCC2` (single isomer, unassigned) [Compound 175a, (R) or (S)-N′-((2-cyclopropyl-3-methyl-6,7-dihydro-5H-cyclopenta[b]pyridin-4-yl)carbamoyl)-4-(2-hydroxypropan-2-yl)thiophene-2-sulfonimidamide], the IC50 under setting [1] lay in the range of 5 to 30 µM.
The same measure, in the same setting: then `CC1CCc2c1nc1c(c2NC(=O)N=S(N)(=O)c2cnc(C(C)(C)O)s2)CCC1` (stereo not drawn) [Compound 162, 2-(2-hydroxypropan-2-yl)-N′-((3-methyl-1,2,3,5,6,7-hexahydrodicyclopenta[b,e]pyridin-8-yl)carbamoyl)thiazole-5-sulfonimidamide], with 0.04 to 0.2 µM.
Turning to `Cc1c(C(F)(F)F)nc2c(c1NC(=O)N=S(N)(=O)c1cnc(C(C)(C)O)s1)CCC2C` (single isomer, unassigned) [Example 704, (R/S, R) or (R/S, S)-N′-((3,7-dimethyl-2-(trifluoromethyl)-6,7-dihydro-5H-cyclopenta[b]pyridin-4-yl)carbamoyl)-2-(2-hydroxypropan-2-yl)thiazole-5-sulfonimidamide], the concentration for half-maximal inhibition (IC50) under setting [2] fell in the range of 0.2 to 1 µM.
On to `CC(C)(O)c1ncc(S(N)(=O)=NC(=O)Nc2c3c(nc4c2CCC4=O)CCC3)s1` (stereo not drawn) [Compound 711], for which, for the setting “Homo sapiens, THP-1, Table B2, numeric bounds, read-out: hTHP-1 IC50”, the IC50 is over 30 µM.
For the compound `NS(=O)(=NC(=O)Nc1c2c(nc(C(F)(F)F)c1C1CC1)CCC2)c1nn(C(F)F)cc1F` (single isomer, unassigned) [Example 775, (R) or (S)-N′-((3-cyclopropyl-2-(trifluoromethyl)-6,7-dihydro-5H-cyclopenta[b]pyridin-4-yl)carbamoyl)-1-(difluoromethyl)-4-fluoro-1H-pyrazole-3-sulfonimidamide], where the note is “Table B4, class symbols, read-out: hTHP-1 IC50”, the IC50 lay within 0.04 to 0.2 µM.
In the case of `CC(C)c1ncc(F)c(C(C)C)c1NC(=O)N=S(N)(=O)c1ncc(C(C)(C)O)s1` (single isomer, unassigned) [Compound 165b], the IC50 under setting [3] was in the range of 5 to 30 µM.
With `CC(C)(O)c1ncc(S(N)(=O)=NC(=O)Nc2c3c(nc4c2CCC42CC2)CCC3)s1` (single isomer, unassigned) [Compound 136b, (R) or (S)-2-(2-hydroxy-propan-2-yl)-N′-((1′,5′,6′,7′-tetrahydro-2′H-spiro[cyclopropane-1,3′-dicyclopenta[b,e]pyridin]-8′-yl)carbamoyl)thiazole-5-sulfonimidamide], the IC50 under setting [1] lay within 0.04 to 0.2 µM.
As for `Cc1c(C2(F)CC2)nc2c(c1NC(=O)N=S(N)(=O)c1cc(C(C)(C)O)cs1)CCC2` (single isomer, unassigned) [Example 684, (S) or (R)-N′-((2-(1-fluorocyclopropyl)-3-methyl-6,7-dihydro-5H-cyclopenta[b]pyridin-4-yl)carbamoyl)-4-(2-hydroxypropan-2-yl)thiophene-2-sulfonimidamide], the IC50 (Homo sapiens, THP-1, Table B3, hTHP-1 assay, numeric values, read-out: IC50) is over 30 µM.
On to `Cc1c(C(F)(F)F)nc2c(c1NC(=O)N=S(N)(=O)c1cnc(C(C)(O)CO)s1)CCC2` (single isomer, unassigned) [Compound 605h, (S, R) or (R, R)-2-(1,2-Dihydroxypropan-2-yl)-N′-((3-methyl-2-(trifluoromethyl)-6,7-dihydro-5H-cyclopenta[b]pyridin-4-yl)carbamoyl) thiazole-5-sulfonimidamide], for which the IC50 (Table B2, class symbols, read-out: hTHP-1 IC50) is 0.2 to 1 µM.
In the case of `Cc1c(C(F)(F)F)nc2c(c1NC(=O)N=S(N)(=O)c1nn(C(F)F)cc1F)CCC2` (single isomer, unassigned) [Example 563], under setting [2], the IC50 was 5 to 30 µM.
On to `CC1CCc2c1nc1c(c2NC(=O)N=S(N)(=O)c2ccc(CN(C)C)cc2F)CCC1` (stereo not drawn) [Compound 139, 4-((dimethylamino)methyl)-2-fluoro-N′-((3-methyl-1,2,3,5,6,7-hexahydrodicyclopenta[b,e]pyridin-8-yl)carbamoyl)benzenesulfon-imidamide], for which, under setting [3], the IC50 was in the range of 0.2 to 1 µM.
